Tested on: human adult primary fibroblast cells
Assay: Proliferative analysis (population doubling, cell counts per passage) under standard and oxidative stress conditions
Type: cell-based
Protocol: Analysis of cellular proliferation rate and telomere length in cultures of human adult primary fibroblast cells treated with lutein under standard and oxidative stress conditions. Primary cultures of adult human fibroblast were established. Cells are seeded at 2×10^3 cells/cm2 in GlutaMax™ high glucose Dulbecco's modified Eagle's medium (DMEM, Gibco®), and supplemented with 10% fetal bovine serum (FBS, HyClone, Thermo Scientific), penicillin (100 U/ml) and reptomycin (1000 U/ml). Media is renewed every 2-3 days and cells passaged at sub-confluence (70-80%) every 4-5 days. Compounds or vehicle control are added to the cells in culture. Cell growth is monitored for each condition by counting cell numbers at each passage using a Countess™ cell counter (Invitrogen). Population doubling (PD) was calculated with the formula PD=(log (Nn/Nn-1))/log 2 where n is the passage; and N the number of cells. One PD is equivalent to one round of cell replication. Eight independent condition were evaluated by proliferative Analysis: Standard cell culture condition+Lutein−10 μg/ml (LUT10) Standard cell culture condition+Lutein−5 μg/ml (LUT5) Standard cell culture condition+Lutein−1 μg/ml (LUT1) Standard cell culture condition+Lutein−10 μg/ml+10 μM H2O2 (LUT10+H2O2) Standard cell culture condition+Lutein−5 μg/ml+10 μM H2O2(LUT5+H2O2) Standard cell culture condition+Lutein−1 μg/ml+10 μM H2O2 (LUT1+H2O2) Cells were expanded during eight weeks under standard and oxidative (10 μM H2O2) cell culture condition as described previously. Fresh treatments were prepared and added to the cells at every passage and also when media was renewed. Stock solution of 10 mg/ml of the compound was prepared in DMSO and the different treatments were prepared from that stock.

[1] = Lutein 5 μg/ml, standard culture, week 1 (P1)
[2] = Lutein 5 μg/ml, standard culture, week 2 (P2)
[3] = Lutein 5 μg/ml, standard culture, week 3 (P3)
[4] = Lutein 5 μg/ml, standard culture, week 4 (P4)
[5] = Lutein 5 μg/ml, standard culture, week 5 (P5)
[6] = Lutein 5 μg/ml, standard culture, week 6 (P6)
[7] = Lutein 5 μg/ml, standard culture, week 7 (P7)
[8] = Lutein 5 μg/ml, standard culture, week 8 (P8)
[9] = Lutein 10 μg/ml + 10 μM H2O2, week 1 (P1)
[10] = Lutein 10 μg/ml + 10 μM H2O2, week 2 (P2)
[11] = Lutein 10 μg/ml + 10 μM H2O2, week 3 (P3)
[12] = Lutein 10 μg/ml + 10 μM H2O2, week 4 (P4)
[13] = Lutein 10 μg/ml + 10 μM H2O2, week 5 (P5)
[14] = Lutein 10 μg/ml + 10 μM H2O2, week 6 (P6)
[15] = Lutein 10 μg/ml + 10 μM H2O2, week 7 (P7)
[16] = Lutein 10 μg/ml + 10 μM H2O2, week 8 (P8)
[17] = Lutein 10 μg/ml, standard culture, week 1 (P1)
[18] = Lutein 10 μg/ml, standard culture, week 2 (P2)
[19] = Lutein 10 μg/ml, standard culture, week 3 (P3)
[20] = Lutein 10 μg/ml, standard culture, week 4 (P4)
[21] = Lutein 10 μg/ml, standard culture, week 5 (P5)
[22] = Lutein 10 μg/ml, standard culture, week 6 (P6)
[23] = Lutein 10 μg/ml, standard culture, week 7 (P7)
[24] = Lutein 10 μg/ml, standard culture, week 8 (P8)

CC1=C[C@H](O)CC(C)(C)[C@H]1/C=C/C(C)=C/C=C/C(C)=C/C=C/C=C(C)/C=C/C=C(C)/C=C/C1=C(C)C[C@@H](O)CC1(C)C [Lutein]
Population Doubling per passage [1]: 3.81
Total number of cells per passage [1]: 2.10E+06
Cumulative Population Doubling per passage [2]: 6.47
Population Doubling per passage [2]: 2.65
Total number of cells per passage [2]: 1.33E+07
Cumulative Population Doubling per passage [3]: 9.12
Population Doubling per passage [3]: 2.65
Total number of cells per passage [3]: 8.33E+07
Cumulative Population Doubling (Table 7A) (Lutein 5 μg/ml, standard culture, week 4): 12.5
Cumulative Population Doubling per passage [4]: 12.53
Population Doubling per passage [4]: 3.42
Total number of cells per passage [4]: 8.89E+09
Cumulative Population Doubling per passage [5]: 15.02
Population Doubling per passage [5]: 2.49
Total number of cells per passage [5]: 4.98E+09
Cumulative Population Doubling per passage [6]: 16.47
Population Doubling per passage [6]: 1.45
Total number of cells per passage [6]: 1.36E+10
Cumulative Population Doubling per passage [7]: 18.15
Population Doubling per passage [7]: 1.68
Total number of cells per passage [7]: 4.35E+10
Cumulative Population Doubling (Table 7A) (Lutein 5 μg/ml, standard culture, week 8): 21.3
Cumulative Population Doubling per passage [8]: 21.26
Population Doubling per passage [8]: 3.12
Total number of cells per passage [8]: 3.77E+11
Cumulative Population Doubling per passage [9]: 3.50
Population Doubling per passage [9]: 3.50
Total number of cells per passage [9]: 1.70E+06
Cumulative Population Doubling per passage [10]: 6.92
Population Doubling per passage [10]: 3.42
Total number of cells per passage [10]: 1.81E+07
Cumulative Population Doubling per passage [11]: 9.65
Population Doubling per passage [11]: 2.74
Total number of cells per passage [11]: 1.21E+08
Cumulative Population Doubling (Table 7A) (Lutein 10 μg/ml + 10 μM H2O2, week 4): 13.1
Cumulative Population Doubling per passage [12]: 13.07
Population Doubling per passage [12]: 3.42
Total number of cells per passage [12]: 1.29E+09
Cumulative Population Doubling per passage [13]: 14.97
Population Doubling per passage [13]: 1.90
Total number of cells per passage [13]: 4.81E+09
Cumulative Population Doubling per passage [14]: 16.97
Population Doubling per passage [14]: 2.00
Total number of cells per passage [14]: 1.93E+09
Cumulative Population Doubling per passage [15]: 18.52
Population Doubling per passage [15]: 1.55
Total number of cells per passage [15]: 5.65E+10
Cumulative Population Doubling (Table 7A) (Lutein 10 μg/ml + 10 μM H2O2, week 8): 20.8
Cumulative Population Doubling per passage [16]: 20.83
Population Doubling per passage [16]: 2.30
Total number of cells per passage [16]: 2.79E+11
Cumulative Population Doubling per passage [17]: 3.58
Population Doubling per passage [17]: 3.58
Total number of cells per passage [17]: 1.80E+06
Cumulative Population Doubling per passage [18]: 6.70
Population Doubling per passage [18]: 3.12
Total number of cells per passage [18]: 1.56E+07
Cumulative Population Doubling per passage [19]: 9.82
Population Doubling per passage [19]: 3.12
Total number of cells per passage [19]: 1.35E+08
Cumulative Population Doubling (Table 7A) (Lutein 10 μg/ml, standard culture, week 4): 13.3
Cumulative Population Doubling per passage [20]: 13.32
Population Doubling per passage [20]: 3.50
Total number of cells per passage [20]: 1.53E+09
Cumulative Population Doubling per passage [21]: 15.75
Population Doubling per passage [21]: 2.43
Total number of cells per passage [21]: 8.27E+09
Cumulative Population Doubling per passage [22]: 18.49
Population Doubling per passage [22]: 2.74
Total number of cells per passage [22]: 5.52E+10
Cumulative Population Doubling per passage [23]: 21.18
Population Doubling per passage [23]: 2.69
Total number of cells per passage [23]: 3.57E+11
Cumulative Population Doubling (Table 7A) (Lutein 10 μg/ml, standard culture, week 8): 23.9
Cumulative Population Doubling per passage [24]: 23.92
Population Doubling per passage [24]: 2.74
Total number of cells per passage [24]: 2.38E+12
Proliferation rate compared to control group (H2O2) (Lutein 10, 5 and 1 μg/ml + 10 μM H2O2 (oxidative culture conditions), after eight weeks): increase in proliferation rate
Proliferation rate compared to control (Ctrl) (Lutein 10, 5 and 1 μg/ml, standard culture conditions, after eight weeks): no difference
